Values of other authors as cited in patent publication US9848760B2, “Devices for continual monitoring and introduction of gastrointestinal microbes” (Gearbox, LLC, priority 2009, dated 2017).

Key:
[1] = tested on: enterotoxigenic Escherichia coli (ETEC); conditions: ETEC infection, MIC90 level, FIG. 17
[2] = tested on: intestinal microbes
[3] = infant stool, associated with treatment
[4] = infant treated at 4 months of age, relative to reference microbial profile at 1 month of age

Molecule	MIC values [1]	abundance of bacilli [2, 3]	abundance of gamma proteobacteria [2, 3]	bacterial composition in stool samples [2, 4]	total bacterial density in stool samples [2, 4]
CC1(C)S[C@@H]2[C@H](NC(=O)[C@H](N)c3ccccc3)C(=O)N2[C@H]1C(=O)O [AMP, ampicillin]	high	–	–	–	–
COc1cc(Cc2cnc(N)nc2N)cc(OC)c1OC [TMP, trimethoprim]	high	–	–	–	–
CC1(C)S[C@@H]2[C@H](NC(=O)[C@H](N)c3ccc(O)cc3)C(=O)N2[C@H]1C(=O)O [amoxicillin]	–	increases	reductions	altered	decrease
TMP/sulfamethoxazole [SXT]	high	–	–	–	–
